Reference: patent US4048299A, “Anticaries confectionaries and oral health products” (William Wrigley, Jr. Co., priority 1970, dated 1977)

Tests used:
[1] = system: Lactobacillus casei and Streptococcus sp. FA-1; experiment: Acid-production inhibition by broth-tube assay, 0.1 percent of compound; type: cell-based; conditions: for Activity, Acid-Production Inhibition, %: Table XII, 0.1% of compound; for inhibition at 0.1 %: Table X, 0.1 percent of compound, read-out: Activity, Acid-Production Inhibition%
Experimental: ^(a) Activity was measured by broth-tube assay to determine percent
(§1) acid-production inhibition obtained by Lactobacillus casei and
Streptococcus sp. FA-1 in the presence of 0.1 percent of compound.
^(a) Activity was measured by broth-tube assay to determine percent o
as §1
Streptococcus sp. FA-1 in the presence of 0.1% of compound. Symbols

[2] = In vivo caries evaluation, Osborne-Mendel strain 2 rat; set-up: species or system rat (Osborne-Mendel strain 2); Caries Score, Mean Incidence / Caries Score, Mean Extent: scale not given here; conditions: for Caries Score, Mean Incidence / Caries Score, Mean Extent: 1 percent in diet; for Caries Extent Reduction, statistical evaluation / Caries Incidence Reduction, statistical evaluation: Student's test, 95 percent confidence limit
Excerpt: (§2) Standard laboratory techniques were used to complie the data presented. In each case the aldehyde was incorporated into each specimen's food in a one percent, by weight, quantity, over a period of several weeks. In all cases, caries reduction was noted.
(§3) The aldehydes tested in vivo were pyruvaldehyde, d,1-glyceraldehyde, crystalline dimer, glycolaldehyde, octanaldehyde, nonanaldehyde, decanaldehyde, undecylenic aldehyde, and lauric aldehyde. The polyaldehydes tested were dialdehyde starch, dialdehyde starch 50 percent oxidized, dialdehyde starch 90 percent oxidized, and dialdehyde galactomannan gum.
(§4) ^(a) Agents were incorporated in the diet at a 1 percent level.

[3] = In vivo caries evaluation, laboratory animals (summary); conditions: one percent level in diet
Excerpt: as §2, §3

L. casei = experiment: Growth inhibition of oral microorganisms in vitro, pour plates; type: cell-based, Lactobacillus casei; conditions: Table IX; for Bacterial Population, Experimental: control 8 × 10^8 to 1 × 10^9; for Inhibition (growth): pour plates incubated 48 - 72 hours
Experimental: (§5) (a)Determined on freshly grown pure cultures. Pour plates were incubated

Streptococcus spp. FA-1 = experiment: as above; type: cell-based; conditions: Table IX; for Bacterial Population, Experimental: control 2 × 10^8 to 5 × 10^8; for Inhibition (growth): pour plates incubated 48 - 72 hours
Experimental: as §5

Streptococcus spp. KI-R [4] = experiment: Growth inhibition by aldehydes in product vehicles, pour-plate technique; type: cell-based; conditions: in tooth powder (aqueous extract), 1 to 5 percent aldehyde
Experimental: (§6) Other in vitro evaluations utilized a broth tube analysis of representative anticaries aldehydes incorporated in the vehicles of this invention against cultures of acid producing microorganisms normally present in the mouth. Standard laboratory procedures were utilized throughout to evaluate the acid production inhibition and growth inhibition over the incubation time of up to 24 hours.
(§7) (b)Measured by pour-plate technique.
(§8) In formulating Tables XIII - XIX representative aldehydes having anticaries activity were selected from those tested as summarized in Tables I - XII and incorporated in seven representative types of products. The products included dextrose and sucrose syrups, obtained commercially in food grades, and compressed candy, hard candy, mouthwash, toothpaste and toothpowder. The five latter products also employed food grade and reagent grade ingredients. These products were formulated by well-known and representative recipes for each type of product. The products were formed in batches of approximately 1 pound or 1 liter and contained all their normal constitutents. Aliquots of each products were blended with one of each of the representative aldehydes selected except in the case of hard candy.
(§9) Aliquots of the aldehyde incorporating sugar syrups, confectioneries, and mouthwash formulations were added directly to assay flasks and mixed or dissolved as required. Aqueous extracts of the aldehyde incorporated in toothpaste and toothpowder were prepared and aliquots of the filtrate were added to the assay flasks.
(§10) The assay flasks contained the necessary components for a normal growth response from the organisms employed, Lactobacillus casei ATCC 4646, originally a human oral isolate, Streptococcus spp. K1-R, human caries isolate, and a mixed oral microbial population obtained fresh from saliva on the morning prior to the initiation of each assay incubation period. The assay flask medium was dissolved in distilled water in which was added an equal volume of filter sterilized human saliva to yield a 50 percent saliva-medium combination. The medium contained all normal ingredients such as yeast extract, proteose peptone number 3 (a proprietary formula of Difco Laboratories, Detroit, Michigan) monopotassium phosphate, Tween 80 (polyoxethylene sorbitan monoleate) and water, except a carbon source. This was supplied by the aliquot of the sucrose syrup, dextrose syrup, sucrose in the compressed candy tablet and sucrose in the hard candy product. In addition, an aliquot of sucrose solution concentrate was added to the assay flask as a carbon source for evaluation of mouthwash, toothpaste, and toothpowder vehicles.
(§11) The lower aldehydes such as glycolaldehyde, crystalline dimer; pyruvaldehyde, aqueous syrup; d,1-glyceraldehyde solution and crystalline dimer; and glutaraldehyde, employed as a 50 percent aqueous solution, are water soluble and were employed directly either as powders or aqueous solutions. The C8 to C12, longer chain aliphatic aldehydes, of which decyl and dodecyl (lauric) were selected as representative, are oil soluble and are prepared and added to the products as emulsions with four parts of Tween 20, polyoxethylene sorbitan monolaurate. The aldehyde concentrations in the products were randomly chosen between 1 to 5 percent by weight. Limits for the concentrations were selected to coincide with the data presented in Tables I - XII in order to verify that the anticaries activity of the aldehydes in the product vehicles tested was equivalent to the activity previously established for the aldehydes alone.

[5] = system: Mixed human oral microorganisms; experiment: as above; type: cell-based; conditions: in tooth powder (aqueous extract), 1 to 5 percent aldehyde
Experimental: as §6, §7, §8, §9, §10, §11

[6] = system: Lactobacillus casei ATCC 4646; experiment: as above; type: cell-based; conditions: in tooth powder (aqueous extract), 1 to 5 percent aldehyde
Experimental: as §6, §7, §8, §9, §10, §11

Streptococcus spp. KI-R [7] = experiment: Acid production inhibition by aldehydes in product vehicles, broth-tube technique; type: cell-based; conditions: in tooth powder (aqueous extract), 1 to 5 percent aldehyde
Experimental: as §6
(§12) (a)Measured by broth-tube technique.
as §8, §9, §10, §11

[8] = system: Mixed human oral microorganisms; experiment: as above; type: cell-based; conditions: in tooth powder (aqueous extract), 1 to 5 percent aldehyde
Experimental: as §6, §12, §8, §9, §10, §11

[9] = system: Lactobacillus casei ATCC 4646; experiment: as above; type: cell-based; conditions: in tooth powder (aqueous extract), 1 to 5 percent aldehyde
Experimental: as §6, §12, §8, §9, §10, §11

[10] = In vivo caries evaluation, Osborne-Mendel strain 1 rat; set-up: species or system rat (Osborne-Mendel strain 1); Caries Score, Mean Incidence / Caries Score, Mean Extent: scale not given here; conditions: Table II, 90 days; for Caries Score, Mean Incidence / Caries Score, Mean Extent: 1 percent in diet; for Caries Score, Mean Incidence: RCD control 19.0 (octan-), 14.1 (nonan-), 17.6 (decan-), 22.3 (undecylenic); for Caries Score, Mean Extent: RCD control 49.6 (octan-), 34.3 (nonan-), 46.0 (decan-), 54.6 (undecylenic); for Caries Extent Reduction, statistical evaluation / Caries Incidence Reduction, statistical evaluation: Student's test, 95 percent confidence limit
Excerpt: as §2, §3, §4

[11] = In vivo caries evaluation, albino hamster; conditions: Table II, 59 days
Excerpt: as §2, §3, §4

[12] = Table II, 90 days, L2000 control 17.4
[13] = Table II, 90 days, L2000 control 31.3
[14] = Student's test, 95 percent confidence limit

O=CCCCC(O)C=O (stereo not shown) [2-Hydroxyadipaldehyde]
Activity, Acid-Production Inhibition, % [1]: + (25 to 74)

CC(C)=CCCC(C)=CC=O [Citral]
inhibition at 0.1 % [1]: 99 to 100%

OCC1OC(O)C(CO)OC1O (stereo not shown) [Glyceraldehyde, crystalline dimer]
Caries Score, Mean Incidence ([2]; Table I, 91 days, L-2000 control 23.5): 15.0
Caries Score, Mean Extent ([2]; Table I, 91 days, L-2000 control 51.0): 29.4
Caries Extent Reduction, statistical evaluation ([2]; Table I, 91 days): Significant
Caries Incidence Reduction, statistical evaluation ([2]; Table I, 91 days): Significant

O=CC=O [Glyoxal]
Activity, Acid-Production Inhibition, % [1]: ++++ (99 to 100)

CCCCCCCCCCCC=O [Lauric aldehyde]
Anticaries effect in laboratory animals [3]: significant anticaries activity
Bacterial Population, Experimental (L. casei): < 1 × 10^2
Inhibition (growth) (L. casei): > 99.99%
inhibition at 0.1 % [1]: 99 to 100%
Caries Score, Mean Incidence [2, 12]: 10.0
Caries Score, Mean Extent [2, 13]: 15.6
Caries Extent Reduction, statistical evaluation ([2]; Table II, 90 days): Significant
Caries Incidence Reduction, statistical evaluation ([2]; Table II, 90 days): Significant
Bacterial Population, Experimental (Streptococcus spp. FA-1): 0
Inhibition (growth) (Streptococcus spp. FA-1): 100%
Growth Inhibition (Streptococcus spp. KI-R [4]; 2 h incubation): 99.2 Per cent
Growth Inhibition (Streptococcus spp. KI-R [4]; 5 h incubation): > 99.99 Per cent
Growth Inhibition (Streptococcus spp. KI-R [4]; 24 h incubation): 100 Per cent
Growth Inhibition ([5]; 2 h incubation): 99.8 Per cent
Growth Inhibition ([5]; 5 h incubation): 99.6 Per cent
Growth Inhibition ([5]; 24 h incubation): N.S.
Growth Inhibition ([6]; 2 h incubation): 99.5 Per cent
Growth Inhibition ([6]; 5 h incubation): > 99.99 Per cent
Growth Inhibition ([6]; 24 h incubation): 99.99 Per cent
Acid Production Inhibition (Streptococcus spp. KI-R [7]; 2 h incubation): 0 Per cent
Acid Production Inhibition (Streptococcus spp. KI-R [7]; 5 h incubation): 0 Per cent
Acid Production Inhibition (Streptococcus spp. KI-R [7]; 24 h incubation): 0 Per cent
Acid Production Inhibition ([8]; 2 h incubation): 33 Per cent
Acid Production Inhibition ([8]; 5 h incubation): 96 Per cent
Acid Production Inhibition ([8]; 24 h incubation): 0 Per cent
Acid Production Inhibition ([9]; 2 h incubation): 0 Per cent
Acid Production Inhibition ([9]; 5 h incubation): 0 Per cent
Acid Production Inhibition ([9]; 24 h incubation): 93 Per cent

O=CC(=O)C=O [Mesoxalic dialdehyde]
Activity, Acid-Production Inhibition, % ([1]; confirmation of purity and structure lacking, actual activity could be much higher): + (25 to 74)

CCCCCCCCCC(C)C=O (stereo not shown) [Methylnonylacetaldehyde]
Bacterial Population, Experimental (L. casei): < 1 × 10^3
Inhibition (growth) (L. casei): > 99.99%
inhibition at 0.1 % [1]: 90 to 98%
Bacterial Population, Experimental (Streptococcus spp. FA-1): 0
Inhibition (growth) (Streptococcus spp. FA-1): 100%

CCCCCCCCC=O [Nonanaldehyde]
Anticaries effect in laboratory animals [3]: significant anticaries activity
Bacterial Population, Experimental (L. casei): 4 × 10^4
Inhibition (growth) (L. casei): > 99.99%
inhibition at 0.1 % [1]: 99 to 100%
Bacterial Population, Experimental (Streptococcus spp. FA-1): 0
Inhibition (growth) (Streptococcus spp. FA-1): 100%
Caries Score, Mean Incidence [10]: 5.1
Caries Score, Mean Extent [10]: 10.2
Caries Extent Reduction, statistical evaluation [10]: Significant
Caries Incidence Reduction, statistical evaluation [10]: Significant

CCCCCCCC=O [Octanaldehyde]
Anticaries effect in laboratory animals [3]: significant anticaries activity
Caries Score, Mean Incidence ([11]; 1 percent in diet, L2000 control 39.3): 18.6
Caries Score, Mean Extent ([11]; 1 percent in diet, L2000 control 117.6): 53.8
Caries Extent Reduction, statistical evaluation [11, 14]: Significant
Caries Incidence Reduction, statistical evaluation [11, 14]: Significant
Bacterial Population, Experimental (L. casei): 2 × 10^7
Inhibition (growth) (L. casei): 97%
inhibition at 0.1 % [1]: 99 to 100%
Caries Score, Mean Incidence [2, 12]: 2.9
Caries Score, Mean Extent [2, 13]: 4.1
Caries Extent Reduction, statistical evaluation ([2]; Table II, 90 days): Significant
Caries Incidence Reduction, statistical evaluation ([2]; Table II, 90 days): Significant
Bacterial Population, Experimental (Streptococcus spp. FA-1): 9 × 10^3
Inhibition (growth) (Streptococcus spp. FA-1): > 99.99%
Caries Score, Mean Incidence [10]: 9.8
Caries Score, Mean Extent [10]: 20.4
Caries Extent Reduction, statistical evaluation [10]: Significant
Caries Incidence Reduction, statistical evaluation [10]: Significant

O=CCCC=O [Succinic dialdehyde]
Activity, Acid-Production Inhibition, % [1]: ++++ (99 to 100)

CC=CCCCCCCCC=O [Undecylenic aldehyde]
Anticaries effect in laboratory animals [3]: significant anticaries activity
Bacterial Population, Experimental (L. casei): 1 × 10^2
Inhibition (growth) (L. casei): > 99.99%
inhibition at 0.1 % [1]: 99 to 100%
Bacterial Population, Experimental (Streptococcus spp. FA-1): 0
Inhibition (growth) (Streptococcus spp. FA-1): 100%
Caries Score, Mean Incidence [10]: 7.4
Caries Score, Mean Extent [10]: 16.4
Caries Extent Reduction, statistical evaluation [10]: Significant
Caries Incidence Reduction, statistical evaluation [10]: Significant

CCCCCCCCCCC=O [Undecylic aldehyde]
Bacterial Population, Experimental (L. casei): 5 × 10^4
Inhibition (growth) (L. casei): > 99.99%
inhibition at 0.1 % [1]: 99 to 100%
Bacterial Population, Experimental (Streptococcus spp. FA-1): 2 × 10^3
Inhibition (growth) (Streptococcus spp. FA-1): > 99.99%
